According to patent US20170267560A1, “TABLETS FOR TREATING AND DISINFECTING WATER” (ERCROS, S.A., priority 2014, published 2017):

Assay: Thermogravimetric analysis of the quantity of additive encapsulated in microporous or mesoporous material
Conditions: for % Encapsulated (g additive/g solid total) × 100: encapsulated in silica by impregnation (Example 1)
[1] = MIL-53 MOF, two steps, 60° C., encapsulation time 1 day
[2] = MIL-53 MOF, two steps, 60° C., encapsulation time 2 days
[3] = MIL-53 MOF, two steps, 60° C., encapsulation time 4 days
[4] = MIL-53 MOF, two steps, 60° C., encapsulation time 7 days
[5] = MIL-88 A (Al) MOF, in-situ encapsulation in one single step (Example 4)
[6] = MIL-88 A (Al) MOF, two steps, encapsulation time 3 days

Question: For `CCCCN(CCC(=O)OCC)C(C)=O` [IR3535, ethyl 3-[acetyl(butyl)amino]propanoate], which “% Encapsulated (g additive/g dry solid) × 100” value [1] is on record?
Answer: 26.0%

Question: What about the “% Encapsulated (g additive/g dry solid) × 100” value [2] of the same compound?
Answer: 22.1%

Question: What about the “% Encapsulated (g additive/g dry solid) × 100” value [3] of the same compound?
Answer: 26.1%

Question: What about the “% Encapsulated (g additive/g dry solid) × 100” value [4] of the same compound?
Answer: 25.2%

Question: What about the “% Encapsulated (g additive/g dry solid) × 100” value [5] of the same compound?
Answer: 21.7%

Question: And the “% Encapsulated (g additive/g dry solid) × 100” value [6]?
Answer: 21.0%

Question: What about the “% Encapsulated (g additive/g solid total) × 100” value of the same compound?
Answer: 58.7%

Question: Which results are given for `CC(C)=CCC/C(C)=C/C(=O)O` [Geranic acid, geranic acid]?
Answer: % Encapsulated (g additive/g dry solid) × 100 [1]: 17.2%; % Encapsulated (g additive/g dry solid) × 100 [2]: 33.4%; % Encapsulated (g additive/g dry solid) × 100 [3]: 35.3%; % Encapsulated (g additive/g dry solid) × 100 [4]: 44.0%; % Encapsulated (g additive/g dry solid) × 100 [5]: 13.4%; % Encapsulated (g additive/g dry solid) × 100 [6]: 10.6%; % Encapsulated (g additive/g solid total) × 100: 55.7%

Question: Which “% Encapsulated (g additive/g dry solid) × 100” value [1] does the source give for `CC(C)=CCC/C(C)=C/CO` [Geraniol, geraniol] here?
Answer: 22.1%

Question: And the “% Encapsulated (g additive/g dry solid) × 100” value [2]?
Answer: 32.0%

Question: And the “% Encapsulated (g additive/g dry solid) × 100” value [3]?
Answer: 29.1%

Question: And the “% Encapsulated (g additive/g dry solid) × 100” value [4]?
Answer: 36.7%

Question: And the “% Encapsulated (g additive/g dry solid) × 100” value [5]?
Answer: 10.9%

Question: What about the “% Encapsulated (g additive/g dry solid) × 100” value [6] of the same compound?
Answer: 11.3%

Question: And the “% Encapsulated (g additive/g solid total) × 100” value?
Answer: 55.0%

Question: Which “% Encapsulated (g additive/g dry solid) × 100” value [1] does the source give for `CC(C)=CCCC(C)CC(=O)O` (stereo not shown) [Citronellic acid, citronellic acid] here?
Answer: 19.2%

Question: What about the “% Encapsulated (g additive/g dry solid) × 100” value [2] of the same compound?
Answer: 22.5%

Question: What about the “% Encapsulated (g additive/g dry solid) × 100” value [3] of the same compound?
Answer: 25%

Question: And the “% Encapsulated (g additive/g dry solid) × 100” value [4]?
Answer: 25.1%

Question: What about the “% Encapsulated (g additive/g dry solid) × 100” value [5] of the same compound?
Answer: 12.2%

Question: What about the “% Encapsulated (g additive/g dry solid) × 100” value [6] of the same compound?
Answer: 8.9%

Question: What about the “% Encapsulated (g additive/g solid total) × 100” value of the same compound?
Answer: 56.9%
